Measured values from publication PMC9844952 (Molecular Imaging and Biology, 2023).

Columns and labels:
mGluR2 = test: [11C]mG2P001 PET/CT in monkeys; assay type: in vivo, Cynomolgus fascicularis
human mGlu2 receptors = human mGlu2 receptors (Homo sapiens, UniProt Q14416); test: radioligand binding in transfected CHO-K1 cells; settings: glutamate 10 μM
S. aureus = test: in vitro binding to S. aureus
NCI-H460 Fluc tumours [1] = assay type: in vivo, mice; settings: 60 min p.i.
NCI-H460 Fluc tumours [2] = test: PET of NCI-H460 Fluc tumours on chick CAM; assay type: in vivo, chicken; settings: for tumour uptake in CAM tumours: 60 min p.i.
[3] = target: norepinephrine transporter (NET) (Homo sapiens, UniProt P23975); test: competitive 3H-NE uptake assay in SK-N-SH cells; assay type: cell-based; settings: read-out: IC50 of 3H-NE uptake; 60 min at 37°C, with pyrogallol and pargyline
Sequence of norepinephrine transporter (NET) (P23975 whole entry): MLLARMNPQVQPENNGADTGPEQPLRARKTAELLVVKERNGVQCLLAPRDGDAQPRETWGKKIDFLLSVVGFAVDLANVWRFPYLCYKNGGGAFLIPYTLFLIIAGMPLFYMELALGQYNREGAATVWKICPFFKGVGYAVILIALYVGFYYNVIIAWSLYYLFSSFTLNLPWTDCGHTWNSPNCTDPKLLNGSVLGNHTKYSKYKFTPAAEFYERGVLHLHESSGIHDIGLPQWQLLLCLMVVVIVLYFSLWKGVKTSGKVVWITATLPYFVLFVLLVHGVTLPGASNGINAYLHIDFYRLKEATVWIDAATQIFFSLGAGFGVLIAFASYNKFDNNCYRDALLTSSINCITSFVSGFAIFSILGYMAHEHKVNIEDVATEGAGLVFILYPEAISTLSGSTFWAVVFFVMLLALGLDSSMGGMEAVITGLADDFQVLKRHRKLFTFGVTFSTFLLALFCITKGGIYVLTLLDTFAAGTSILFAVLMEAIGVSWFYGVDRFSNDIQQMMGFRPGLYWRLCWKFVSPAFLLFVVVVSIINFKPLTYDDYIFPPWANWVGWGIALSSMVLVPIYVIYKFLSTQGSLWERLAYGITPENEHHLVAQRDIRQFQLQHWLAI

Escherichia coli 25922 = test: in vitro tracer uptake, Gram-negative control
[4] = blood half-life and biodistribution of [99mTc]-DTPA-Collagen
[5] = LogP of [99mTc]-DTPA-Collagen
Gram-positive bacteria = test: in vitro tracer uptake, Gram-positive bacteria
[6] = in vitro stability of [99mTc]-DTPA-Collagen; settings: 50h post-incubation, Radio-TLC
Candida albicans 14053 = test: in vitro tracer uptake, yeast control
[7] = doxorubicin-induced chronic cardiotoxicity model; assay type: in vivo, C57BL/6J mice; settings: 8x3 mg/kg ip over 2 weeks
[8] = cited from earlier work

Sequence of human mGlu2 receptors (Q14416 19-872): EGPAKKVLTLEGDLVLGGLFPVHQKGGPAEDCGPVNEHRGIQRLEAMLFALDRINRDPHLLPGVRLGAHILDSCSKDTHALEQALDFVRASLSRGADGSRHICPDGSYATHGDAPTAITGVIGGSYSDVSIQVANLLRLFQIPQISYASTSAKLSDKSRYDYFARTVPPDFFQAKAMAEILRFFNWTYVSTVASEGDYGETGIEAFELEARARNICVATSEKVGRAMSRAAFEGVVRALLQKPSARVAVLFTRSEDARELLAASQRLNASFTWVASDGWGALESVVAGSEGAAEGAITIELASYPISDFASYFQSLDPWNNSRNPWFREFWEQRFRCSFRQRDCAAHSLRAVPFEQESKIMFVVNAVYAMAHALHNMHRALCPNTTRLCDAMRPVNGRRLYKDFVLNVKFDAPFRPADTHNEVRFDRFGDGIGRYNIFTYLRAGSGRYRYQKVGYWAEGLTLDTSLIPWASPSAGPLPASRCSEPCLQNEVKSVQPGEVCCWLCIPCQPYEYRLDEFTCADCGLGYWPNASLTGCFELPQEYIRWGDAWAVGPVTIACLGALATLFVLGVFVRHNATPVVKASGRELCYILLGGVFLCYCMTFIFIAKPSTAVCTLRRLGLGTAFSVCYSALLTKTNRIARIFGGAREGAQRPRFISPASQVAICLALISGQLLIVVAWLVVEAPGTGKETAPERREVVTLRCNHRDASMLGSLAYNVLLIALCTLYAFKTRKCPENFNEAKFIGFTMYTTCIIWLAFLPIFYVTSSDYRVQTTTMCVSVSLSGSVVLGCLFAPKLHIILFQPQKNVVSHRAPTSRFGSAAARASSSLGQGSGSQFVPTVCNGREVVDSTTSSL

## Cn1c(CN2CCC(c3ccc(C(F)(F)F)cc3O[11CH3])CC2)nc2ncccc21 [[11C]mG2P001, 2-((4-(2-[^11C]methoxy-4-(trifluoromethyl)phenyl)piperidin-1-yl)methyl)-1-methyl-1H-imidazo[4,5-b]pyridine]
mGluR2; at 15 min
  SUVmax in brain: > 3
mGluR2; representative study, pretreatment with 0.6 mg/kg mG2P001 iv
  enhancement of accumulation (Logan VT): 33%
Human mGlu2 receptors
  maximum enhancement of specific binding vs control: 2 fold

## O=C[C@H]([18F])[C@@H](O)[C@H](O)[C@H](O)CO [[18F]FDG, 18-fluorodeoxyglucose]
S. aureus
  binding to S. aureus: 21±1%
NCI-H460 Fluc tumours [1]
  tumour uptake in mice: 6.0 ± 1.4 %ID/g
NCI-H460 Fluc tumours [2]
  tumour uptake in CAM tumours: 10.0 ± 2.1 %ID/g
NCI-H460 Fluc tumours [2]; i.v. ~3 MBq
  tumour-to-albumin ratio: 14.7

## N=C(N)NCc1cccc(I)c1 [MIBG, meta-iodobenzylguanidine]
[3]
  IC50: 1.75 ± 0.47 µM

## [99mTc]-DTPA-Collagen: Rat Tail Collagen I conjugated to DTPA and labeled with 99mTc
S. aureus
  binding to S. aureus: 66±3%
Escherichia coli 25922
  in vitro uptake: 9±2%
[4]; blood extraction
  blood circulation half-life: 19 ± 2 min
[4]; rat, in vivo
  liver uptake, ex vivo: 6.1±2.8 %ID/g
  spleen uptake, ex vivo: 2.1±0.2 %ID/g
[5]
  LogP: -3.69±0.58
Gram-positive bacteria
  in vitro uptake: 63±7%
[6]
  stability: higher than 90%
Candida albicans 14053
  in vitro uptake: 12±3%

## COc1cccc2c1C(=O)c1c(O)c3c(c(O)c1C2=O)C[C@@](O)(C(=O)CO)C[C@@H]3O[C@H]1C[C@H](N)[C@H](O)[C@H](C)O1 [doxorubicin]
[7]
  overall mortality rate: < 20%

## N[C@@H](C[C@H](CCC[18F])C(=O)O)C(=O)O [[18F]FSPG]
[8]
  stable in human plasma: up to 4 hours
NCI-H460 Fluc tumours [2]
  tumour uptake in CAM tumours: 14.0 ± 5.5 %ID/g
